# Test results reported in patent US11141496B2, “Use of berberine or derivative thereof in preparing myocardial perfusion imaging agent” (WEST CHINA HOSPITAL, SICHUAN UNIVERSITY, priority 2017, dated 2021).
# Experiments:
# [1] = system: SD neonatal rat primary cardiomyocytes; assay: [^18F]HX-01 uptake in SD neonatal rat primary cardiomyocytes, with and without CCCP (γ counter); type: cell-based
# Protocol: (§1) As described in method 1.4.4, the suspension of rat cardiomyocytes H9C2, NIH3T3 cells and SD neonatal rat primary cardiomyocytes was adjusted to the concentration of 20×10^4/ml, inoculated in a six-well plate, with 2 ml for each well (containing 4×10^5 cells), and the experimental group and CCCP inhibition group were included, The plate was cultured at 37° C. in 5% CO2 under saturated humidity for 24 h. After the cells adhered, 30 minutes before addition of [^18F]HX-01, the DMEM high-glucose medium in the Petri dish was aspirated and discarded. DMEM high-glucose medium containing CCCP (0.5 μM) was firstly added at 2 ml/well to the cell culture dish in CCCP inhibition group, while an equal volume of DMEM high-glucose medium without CCCP was added to the cell culture dish in the experimental groups, and the dish was incubated at 37° C. in 5% CO2 under saturated humidity for 30 min. Then, 100 μl solution of [^18F]HX-01 dissolved in saline was added to each well at a dose of 2.5 μCi. The plate was incubated at 37° C. in 5% CO2 under saturation humidity. After incubation for 5 min, 10 min, 30 min, 60 min and 120 min, the liquid in the well was collected, and rinsed 3 times with PBS, and all the rinse liquid was collected in the radioimmunotubes. After digestion with 0.25% trypsin, all cells were collected in the radioimmunotubes, and the radioactivity counts of the liquid and cells in the wells were measured with a γ counter, and the data were recorded. Three replicate holes were set for each time point.
# mouse fibroblasts NIH3T3 = assay: [^18F]HX-01 uptake in NIH3T3 cells, with and without CCCP (γ counter); type: cell-based
# Protocol: as §1
# [2] = rabbit, in vivo
# [3] = SD rat myocardial infarction model, 350 μCi/rat, up to 120 min
# [4] = Competitive inhibition test of [^18F]HX-01 and non-radioactive standard [^19F]HX-01 (PET); type: in vivo, New Zealand white rabbit; conditions: [^19F]HX-01 1 nmol/kg i.v. 30 min before tracer
# Protocol: After anesthesia and fixation, the male New Zealand white rabbits were set as their own control (n=3). On the first day, 2 ml saline was injected into the ear marginal vein of the rabbits. Then, the tracer [^18F]HX-01 was injected, and the dosage was 0.5 mci/kg, and PET scanning was performed immediately as described in 1.4.2. On the second day, non-radioactive standard [^19F]HX-01 was injected through ear edge vein, and the dose of standard substance was 1 nmol/kg, that was dissolved in 2 ml normal saline. 30 min After injection of non-radioactive standard [^19F]HX-01, the tracer [^18F]HX-01 was injected, and the injection doe was 0.5 mCi/kg. After the injection, PET dynamic scanning was performed as described in 1.4.2. […] Using Compassview 5.0 to analyze and process the data, the brain, heart, liver, lung, kidney, bone and muscle of the region of interest (ROI) were drawn on the horizontal axis, and SUVmax was recorded.
# rat cardiomyocytes H9C2 = assay: [^18F]HX-01 uptake in H9C2 cells, with and without CCCP (γ counter); type: cell-based
# Protocol: as §1, with “After incubation for 5 min, 10 min, 30 min, 60 min and 120 min, the liquid in the well was collected, and rinsed 3 times with PBS, and all the rinse liquid was collected in the radioimmunotubes.” left out, “Three replicate holes were set for each time point.” left out
# [5] = system: mitochondria of SD neonatal rat primary cardiomyocytes; assay: [^19F]HX-01 localization with red mitochondrial probe M7513 in primary cardiomyocytes; type: cell-based; conditions: 4 μM, 10 min, cardiomyocytes and surrounding mixed cells
# Protocol: The suspension of primary myocardial cells of SD suckling mice was adjusted to the concentration of 20×10^4/ml, inoculated in a six-well plate, with 2 ml for each well, and then incubated at 37° C. in 5% CO2 under saturated humidity for 24 h. After adherence, the DMEM high glucose medium in each well was aspirated and discarded, and DMEM high glucose medium containing different concentrations of [^19F]HX-01 (6.25, 12.5, 25, 50, 100, 150, and 200 μM) was firstly added, with 2 ml for each well, and each concentration has three replicate wells. After incubation at 37° C. in 5% CO2 under saturated humidity for 1 h, the liquid in each well was aspirated and removed. […] After the wells were washed three times with PBS, the cells were finally observed under a confocal fluorescence microscope with an excitation wavelength of 488 nm.
# In order to further clarify the localization characteristics of [^19F]HX-01 in the subcellular organelles of SD rat primary cardiomyocytes, after addition of above different concentrations of [^19F]HX-01 and incubation for 1 h, the medium was discarded, and each well was rinsed with PBS three times. Each well was added the medium containing mitochondrial specific probe with red fluorescence (Mito Tracker Red (M7513), Thermo fisher) and incubated for another 10 min, the medium was removed, and each well was rinsed with PBS three times. […]
Structure (SMILES),uptake percentage ([1]; 30 min),uptake percentage (peak value) ([1]; 120 min),"intake percentage, normal group vs CCCP inhibition group ([1]; CCCP 0.5 μM, p>0.05)",uptake percentage (mouse fibroblasts NIH3T3; 5 min),uptake percentage (mouse fibroblasts NIH3T3; 120 min),"uptake, normal group vs CCCP inhibition group (mouse fibroblasts NIH3T3; CCCP 0.5 μM, p>0.05)",SUVmax ratio of heart/lung [2],SUVmax ratio of heart/muscle [2],"uptake in other tissues such as brain, lung, muscle and bone [2]",Micro PET image of anterior wall of left ventricle near apical area (infarction) [3],"kidney uptake (SUVmax), inhibition group vs control group [4]","liver uptake (SUVmax), inhibition group vs control group [4]","myocardial uptake (SUVmax), inhibition group vs control group ([4]; P<0.001)","lung, bone, muscle and brain uptake (SUVmax), inhibition group vs control group ([4]; P>0.05)","uptake percentage (peak value) (rat cardiomyocytes H9C2; 120 min, 2.5 μCi per well)","uptake percentage, control group vs CCCP inhibition group (rat cardiomyocytes H9C2; CCCP 0.5 μM 30 min before tracer)",distribution of red fluorescence of the probe [5]
COc1c(OCCC[18F])ccc2cc3[n+](cc12)CCc1cc2c(cc1-3)OCO2.[Cl-] [[^18F]HX-01],2.08%±0.13%,2.41%±0.03%,no significant difference in the intake percentage,0.78±0.06,0.91±0.01,did not show a significant difference,greater than 10,greater than 10,extremely low,showed a fixed radioactive defect,no statistical significance between the two groups,no statistical significance between the inhibition group and the control group,SUVmax value was obviously reduced,not statistically significant,2.89%±0.11%,didn't show significant difference in the uptake percentage,–
ClCc1ccc(C2=c3cc4c5c(c3Oc3c2cc2c6c3CCCN6CCC2)CCC[N+]=5CCC4)cc1.[Cl-] [M7513],–,–,–,–,–,–,–,–,–,–,–,–,–,–,–,–,appeared in the mitochondria of all cells in a granular distribution
